According to paper PMC8221158, “Novel pyrrolizines bearing 3,4,5-trimethoxyphenyl moiety: design, synthesis, molecular docking, and biological evaluation as potential multi-target cytotoxic agents” (Journal of Enzyme Inhibition and Medicinal Chemistry, 2021):
Each block holds one molecule with its values, some of them ahead of it.

Tests used:
A2780 = settings: MTT, 72 h; read-out: IC50 (µM ± SD) A2780; cited from earlier work
normal MRC-5 cells = tested on: normal MRC-5 cells; parameters: method as in PMID 31655429; settings: 72 h; read-out: IC50 (µM ± SD) MRC-5; cited from earlier work
MCF-7 = settings: MTT, 72 h; read-out: IC50 (µM ± SD) MCF-7; cited from earlier work
[1] = tested on: MCF-7, HCT116, and A2780 cancer cell lines; experiment: MTT assay, three cancer cell lines taken together (average, overall range); format: cell-based, human; settings: Homo sapiens; MCF-7, HCT116, A2780; read-out: Average of the three IC50 values against the three cancer cell lines
20 kinases = tested on: 20 kinases; parameters: method as in PMID 31655429; settings: ALK1, CDK-2/cyclin A1, DYRK3, GSK3 alpha, NEK1; cited from earlier work
MCF-7 cells = tested on: MCF-7 cells; parameters: method as in PMID 31655429; settings: 1 µM, 24 h; control 17.3%; cited from earlier work
CDK-2 = target: T1, CDK-2 (Homo sapiens, UniProt P24941); parameters: method as in PMID 17064068; settings: read-out: IC50 against CDK-2; cited from earlier work
T1 construct: purchased Promega, Madison, WI

Aurora A = target: T2, Aurora A (Homo sapiens, UniProt O14965); experiment: Kinase profiling test; format: biochemical; settings: stated as inhibition
T2 sequence (O14965 1-403): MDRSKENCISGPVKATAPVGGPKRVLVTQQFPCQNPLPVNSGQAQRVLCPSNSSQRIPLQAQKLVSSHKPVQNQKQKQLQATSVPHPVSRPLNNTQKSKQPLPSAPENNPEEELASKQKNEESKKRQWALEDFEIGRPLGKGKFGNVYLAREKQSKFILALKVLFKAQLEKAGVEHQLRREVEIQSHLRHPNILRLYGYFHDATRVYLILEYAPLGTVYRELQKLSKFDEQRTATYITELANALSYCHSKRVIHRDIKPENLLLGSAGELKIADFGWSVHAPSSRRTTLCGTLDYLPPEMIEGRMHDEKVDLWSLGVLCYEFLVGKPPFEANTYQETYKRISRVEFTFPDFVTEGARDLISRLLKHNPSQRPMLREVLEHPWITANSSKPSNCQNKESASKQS
Procedure: The test was performed using the radiolabeled ATP determination method (KINEXUS Bioinformatics Corporation, Vancouver, Canada). The test was performed following the previous reports[13]^,[20].
The three compounds were tested at the same concentration (10 μM) against the same 20 kinases used in the previous report. The test was performed by KINEXUS Bioinformatics Corporation (Vancouver, Canada), following previous reports[13]^,[20].

tubulin assembly = tested on: tubulin assembly; parameters: method as in PMID 24890652; settings: cited from earlier work
VEGFR-2 = tested on: VEGFR-2; parameters: method as in PMID 24890652; settings: cited from earlier work
HDAC1 = settings: cited from earlier work
HDAC2 = settings: cited from earlier work
HDAC3 = settings: cited from earlier work
[2] = tested on: a panel of cancer cell lines; settings: read-out: cytotoxic activity IC50; cited from earlier work
porcine tubulin = target: T3, porcine tubulin (Sus scrofa, UniProt P02550+P02554); experiment: Tubulin polymerisation fluorescence-based assay; format: biochemical; settings: 3 μM, positive control (enhancer)
T3 construct: purchased Cytoskeleton Inc., Denver, CO BK011P
T3 sequence (P02550 whole entry): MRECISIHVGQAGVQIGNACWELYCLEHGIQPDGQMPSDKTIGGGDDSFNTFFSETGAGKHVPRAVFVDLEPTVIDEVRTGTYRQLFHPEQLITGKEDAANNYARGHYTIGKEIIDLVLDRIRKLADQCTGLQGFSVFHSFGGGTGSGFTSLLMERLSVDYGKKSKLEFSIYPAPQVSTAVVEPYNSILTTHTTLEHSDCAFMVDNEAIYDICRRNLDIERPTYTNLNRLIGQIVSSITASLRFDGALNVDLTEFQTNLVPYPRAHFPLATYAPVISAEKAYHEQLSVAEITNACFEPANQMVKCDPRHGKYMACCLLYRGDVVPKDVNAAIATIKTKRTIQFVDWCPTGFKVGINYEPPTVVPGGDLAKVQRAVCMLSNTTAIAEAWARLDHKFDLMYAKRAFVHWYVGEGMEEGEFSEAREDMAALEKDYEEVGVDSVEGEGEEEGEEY
T3 sequence (P02554 whole entry): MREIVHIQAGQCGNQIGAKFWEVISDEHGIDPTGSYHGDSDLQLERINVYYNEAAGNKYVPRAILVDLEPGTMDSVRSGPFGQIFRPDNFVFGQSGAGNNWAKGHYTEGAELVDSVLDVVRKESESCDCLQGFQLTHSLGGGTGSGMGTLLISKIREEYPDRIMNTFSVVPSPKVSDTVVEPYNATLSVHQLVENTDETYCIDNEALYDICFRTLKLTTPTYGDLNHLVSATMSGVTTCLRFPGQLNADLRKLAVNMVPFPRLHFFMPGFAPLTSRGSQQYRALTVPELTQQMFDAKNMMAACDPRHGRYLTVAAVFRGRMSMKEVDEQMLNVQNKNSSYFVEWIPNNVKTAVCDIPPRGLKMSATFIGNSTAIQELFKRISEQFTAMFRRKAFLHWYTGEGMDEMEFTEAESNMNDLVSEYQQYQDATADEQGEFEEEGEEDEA
Procedure: The effect of compounds 16a,b,d on tubulin polymerisation was measured in vitro using tubulin polymerisation fluorescence-based assay (cytoskeleton, cat. BK011P, https://www.cytoskeleton.com/bk011p). The assay was performed following the previous report[22] and according to the manufacturer’s instructions. Briefly, 2 mg/mL porcine tubulin was dissolved in buffer 1 (80 mM PIPES, 2 mM MgCl2, 0.5 mM EGTA pH 6.9, 10 µM fluorescent reporter, 1 mM GTP, 15% glycerol) to a final concentration of […]. Then tubulin solution was transferred to a pre-warmed 96-well plate that contained the test compounds 16a,b,d (5 μM), paclitaxel (3 μM), CaCl2 (0.5 μM), and control buffer. The polymerisation of tubulin was monitored as fluorescence at 37 °C for 60 min. Relative fluorescence units (RFU) were determined at 360 nm for excitation and at 460 nm for emission using the Varioskan Flash spectral scanning multimode reader (Thermo Fisher Scientific, Roskilde, Denmark) at a reading speed of 1 cycle/min.
In the current study, the new compounds were designed bearing the trimethoxy phenyl moiety aiming to obtain new cytotoxic agents that can interfere with tubulin polymerisation in cancer cells. […] In this assay, light scattering by microtubules which is directly proportional to the concentration of the microtubule polymer was used as a measure of tubulin polymerisation. The study was performed using a fluorescence-based tubulin polymerisation assay kit (Cytoskeleton Inc., Denver, CO; Cat # BK011P) following the manufacturer’s instructions (https://www.cytoskeleton.com/bk011p) and according to the previous report.
Paclitaxel (3 μM) was used as a tubulin polymerisation enhancer (positive control, enhancer), while calcium chloride (CaCl2, 0.5 μM) was used as a positive control (inhibitor) as per the manufacturer’s instructions (https://www.cytoskeleton.com/pdf-storage/datasheets/bk011p.pdf). The vehicle was also used to evaluate the polymerisation when tubulin is incubated in the absence of the test compound. The effect of the selected compounds (5 μM) on tubulin polymerisation was evaluated and compared with those of the positive control. The results are represented in Figure 8.

- IC50 [1]: 310 nM
SMILES: CC(C)C/C=N/c1c(C#N)c2n(c1C(=O)Nc1ccc(Br)cc1)CCC2 [9a]
- IC50 (A2780): 0.52 ± 0.02 µM
- IC50 (normal MRC-5 cells): 25.8 ± 0.73 µM
- IC50 (MCF-7): 0.1 ± 0.05 µM
- inhibition% over the inhibited kinases of the panel (20 kinases): 3–25%
- Cell cycle S phase % (MCF-7 cells): 55.6%

- IC50 [1]: 2330 nM
SMILES: N#Cc1c(/N=C/c2ccccc2)c(C(=O)Nc2ccc(Br)cc2)n2c1CCC2 [9b]
- IC50 (A2780): 4.16 ± 1.27 µM
- IC50 (normal MRC-5 cells): 9 ± 0.13 µM
- IC50 (MCF-7): 0.5 ± 0.15 µM

SMILES: Nc1n[nH]c(N)c1/N=N/c1ccc(O)cc1 [CAN508, 4-[(E)-(3,5-diamino-1H-pyrazol-4-yl)diazenyl)phenol]
- IC50 (CDK-2): 3.5 µM

- inhibition at 10 µM (Aurora A): 38%
SMILES: Cc1ccc(NC(=O)c2ccc(CN3CCN(C)CC3)cc2)cc1Nc1nccc(-c2cccnc2)n1 [Imatinib, reference compound]

SMILES: COc1ccc(N(C)c2nc(C)nc3oc(C)cc23)cc1 [compound 7]
- IC50 (tubulin assembly): 1.9 nM

SMILES: COc1cc2c(c(OC)c1OC)-c1ccc(OC)c(=O)cc1[C@@H](NCc1ccc(C(=O)Nc3ccccc3N)cc1)CC2 [compound 8]
- IC50 (HDAC1): 12.5 µM
- IC50 (HDAC2): 6.73 µM
- IC50 (HDAC3): 11.2 µM
- IC50 [2]: 2 to 105 nM

SMILES: CC(=O)O[C@H]1C(=O)[C@@]2(C)[C@H]([C@H](OC(=O)c3ccccc3)[C@]3(O)C[C@H](OC(=O)[C@H](O)[C@@H](NC(=O)c4ccccc4)c4ccccc4)C(C)=C1C3(C)C)[C@]1(OC(C)=O)CO[C@@H]1C[C@@H]2O [paclitaxel, reference compound]
- effect on tubulin polymerisation (porcine tubulin): eliminated the nucleation phase I and enhanced the growth phase II
